According to patent publication US20220378744A1, “COMPOUNDS FOR TREATING PROLIFERATOR-ACTIVATED RECEPTORS (PPAR) MEDIATED DISEASES OR CONDITIONS” (MEDIPURE PHARMACEUTICALS INC., priority 2021, published 2022):
Each block holds one compound with its values, some of them ahead of it.

Legend:
[1] = system: TNFα/IL-17A-stimulated HaCaT cells; experiment: Anti-inflammatory effect of combined test compounds (Abn-CBD/CBD and PPAR agonists) in TNFα/IL-17A-stimulated HaCaT cells; assay type: cell-based, human
Procedure: HaCaT cells were maintained as described above in DMEM high glucose (4.5 g/L) medium supplemented with 10% FBS and 1% (v/v) penicillin/streptomycin solution (Invitrogen, Thermo Fisher) and kept in an incubator at 37° C. with 5% CO2. For experiments the cells were seeded at 5×10^4 cells/well in 0.5 mL of medium to a 24-well culture plate (Nunc, Thermo Fisher) and incubated overnight. The old medium in the culture plates was discarded and the corresponding stimulant, TNFα/IL-17A (R&D Systems) at 2 ng/mL each, with or without test chemicals in 0.5 mL of fresh medium was added to each cell well in the plate. There were duplicate wells for each treatment. The plate was incubated for another 24 h and the supernatant was collected for cytokine analysis, namely IL-6 and IL-8, using ELISA kits (Thermo Fisher).

[2] = system: IMQ-induced psoriasis in BALB/c mice; experiment: IMQ-induced psoriasis model in BALB/c mice, topical creams, PASI score; assay type: in vivo; details: for tolerability in mice / visual damage on the skin: topical, seven-day consecutive treatment; for tolerability in mice: even at 10% creams; for visual damage on the skin: up to 10% creams
Procedure: The animal experiment is conducted in accordance with the Guidelines for the Institutional Animal Care and Use Committee. Both male and female BALB/c mice from Rodenta Bioserve, India, at 7-8 weeks of age and 20-25 gram of body weight are housed in a laboratory environment with constant temperature (24.0±1.0° C.) and relative humidity (45.0-55.0%) on a 12 h light/dark cycles. These animals are provided free access to unlimited amounts of food and water during the entire experiment. The animals are divided into 12 groups of 8 mice each and shaved on the back on day 0 for an area of 2×2 cm . Human-like psoriasis in mice is induced by topical application of 5% Imiquimod (IMQ) procured from AK Scientific, USA, and formulated in the base cream at desired percentages in-house, in shaved area and right ear (0.5×0.5 cm). […] Vehicle, clobetasol propionate (CP, Sigma. 0.05% w/w; positive control), test creams, and CBD (Ilesol Pharmaceuticals), respectively, is applied topically on both the shaved back (80 mg cream) and the right ear (20 mg cream) of mice, once daily from day 10 to day 16. The study ends at day 17. At stated time points the severity of psoriasis is evaluated using the PASI score (Psoriasis Area Severity Index: sum of erythema, scaling and thickening, scored independently from 0 to 4 for each mouse; max PASI score=12). Tissue and blood samples are collected for histopathology, biochemistry and immunoassay from each animal at various points.

[3] = target: T1, human PPARα (NR1C1) (Homo sapiens, UniProt Q07869); experiment: Cell-based human PPARα transactivation (nuclear receptor reporter) assay; details: luciferase reporter cells, 24 h treatment, FIG. 1
T1 sequence (Q07869 1-468): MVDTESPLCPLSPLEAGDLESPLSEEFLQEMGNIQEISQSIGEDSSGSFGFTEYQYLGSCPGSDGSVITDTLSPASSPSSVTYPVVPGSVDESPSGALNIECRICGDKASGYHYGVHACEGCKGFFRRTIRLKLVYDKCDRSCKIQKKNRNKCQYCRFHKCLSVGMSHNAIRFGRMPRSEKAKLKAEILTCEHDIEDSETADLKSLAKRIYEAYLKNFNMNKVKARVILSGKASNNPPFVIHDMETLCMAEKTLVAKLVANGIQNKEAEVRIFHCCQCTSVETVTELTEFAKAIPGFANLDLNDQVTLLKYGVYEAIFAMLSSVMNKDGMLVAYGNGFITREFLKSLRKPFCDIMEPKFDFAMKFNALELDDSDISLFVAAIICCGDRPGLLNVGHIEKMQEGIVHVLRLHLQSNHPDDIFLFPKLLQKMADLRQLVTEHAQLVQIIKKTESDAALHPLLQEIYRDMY
Procedure: (§1) The assay was performed using cell-based human PPAR nuclear receptor reporter assay kits (NR1C1 for PPARα; NR1C2 for PPARδ/β, and NR1C3 for PPARγ, Indigo Biosciences) by following the manufacturer's instruction. In brief, PPAR reporter cells were added to CRM medium (Indigo Biosciences), seeded into wells of a 96-well culture plate and incubated for 5 hours in a cell culture incubator at 37° C. with 5% CO2. The medium was then removed, and the cells were treated with test compounds at different concentrations in CSM medium (Indigo Biosciences) for 24 h inside the incubator. […] DMSO (Sigma) at 0.1% (v/v) was used as negative baseline control (C). Each treatment was tested in duplicate wells. At the end point of the experiments, the treatment medium was discarded and Luciferase Detection Reagent (Indigo Biosciences) was added. Following a 10-minute rest period, the intensity of light emission (in units of “Relative Light Units; RLU”) from each assay well was quantified using a plate-reading luminometer (Synergy H1 plate reader, BioTek). In addition, live cell multiplex assay (Indigo Biosciences) was combined with the activation assays to detect potential cytotoxic effect, if any, of the test chemicals to normalize the signals as per manufacturer's instruction.

[4] = target: T2, human PPARγ (NR1C3) (Homo sapiens, UniProt P37231); experiment: Cell-based human PPARγ transactivation (nuclear receptor reporter) assay; details: FIG. 3
T2 sequence (P37231 1-505): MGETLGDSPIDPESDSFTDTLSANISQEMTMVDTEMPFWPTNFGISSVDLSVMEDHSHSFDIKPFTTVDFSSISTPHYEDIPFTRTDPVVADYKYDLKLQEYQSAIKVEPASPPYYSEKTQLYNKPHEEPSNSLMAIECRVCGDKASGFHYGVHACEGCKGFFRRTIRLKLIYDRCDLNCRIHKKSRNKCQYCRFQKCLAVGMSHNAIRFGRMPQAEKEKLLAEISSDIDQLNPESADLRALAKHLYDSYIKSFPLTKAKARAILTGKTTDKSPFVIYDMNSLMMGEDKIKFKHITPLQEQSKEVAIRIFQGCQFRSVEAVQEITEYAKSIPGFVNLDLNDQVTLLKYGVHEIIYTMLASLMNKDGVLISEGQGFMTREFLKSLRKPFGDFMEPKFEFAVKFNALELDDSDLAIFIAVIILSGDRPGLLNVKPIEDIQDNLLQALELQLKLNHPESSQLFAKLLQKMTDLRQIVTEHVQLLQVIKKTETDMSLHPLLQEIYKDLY
Procedure: as §1

[5] = system: IMQ-stimulated HaCaT cells; experiment: Anti-inflammatory effect, IMQ-stimulated HaCaT cell model (IL-6, IL-8 ELISA); assay type: cell-based, human; details: IMQ 50 μM, 24 h, vs control
Procedure: (§2) Three in vitro models based on HaCaT cell culture were tested. HaCaT cells were maintained as described above in DMEM high glucose (4.5g/L) medium supplemented with 10% FBS and 1% (v/v) penicillin/streptomycin solution (Invitrogen, Thermo Fisher) and kept in an incubator at 37° C. with 5% CO2. For experiments, the cells were seeded at 5×10^4 cells/well in 1 mL of medium to a 24-well culture plate (Nunc, Thermo Fisher) and incubated overnight.
(§3) (1) For the imiquimod (IMQ)-stimulated HaCaT model, IMQ (Alfa Aesar) at 50 μM final concentration was used in the experiments; (2) for TNFα/IL-17A-stimulated-HaCaT model, 2 ng/mL of each cytokine (R&D Systems) was used; and (3) for the lipopolysaccharide (LPS, Sigma) simulated HaCaT cell model, 20 μg/mL LPS was used. For drug chemical treatment the old medium in the culture plates described above was discarded and the corresponding stimulant (IMQ, TNFα/IL-17A, or LPS) with or without test chemicals in 0.5 mL fresh medium was added to each cell well. There were duplicate wells for each treatment. The plate was incubated for another 24 h and the supernatant was collected for cytokine analysis, namely IL-6 and IL-8, using the corresponding ELISA kits (Thermo Fisher).

[6] = system: LPS-stimulated HaCaT cells; experiment: Anti-inflammatory effect, LPS-stimulated HaCaT cell model (IL-6, IL-8 ELISA); assay type: cell-based, human; details: LPS 20 μg/mL, 24 h
Procedure: as §2
as §3, with “Fisher). The experiments were repeated independently to confirm the observation.” for “Fisher).”

[7] = target: T3, human PPARδ/β (NR1C2) (Homo sapiens, UniProt Q03181); experiment: Cell-based human PPARδ/β transactivation (nuclear receptor reporter) assay; details: at tested concentrations
T3 sequence (Q03181 1-441): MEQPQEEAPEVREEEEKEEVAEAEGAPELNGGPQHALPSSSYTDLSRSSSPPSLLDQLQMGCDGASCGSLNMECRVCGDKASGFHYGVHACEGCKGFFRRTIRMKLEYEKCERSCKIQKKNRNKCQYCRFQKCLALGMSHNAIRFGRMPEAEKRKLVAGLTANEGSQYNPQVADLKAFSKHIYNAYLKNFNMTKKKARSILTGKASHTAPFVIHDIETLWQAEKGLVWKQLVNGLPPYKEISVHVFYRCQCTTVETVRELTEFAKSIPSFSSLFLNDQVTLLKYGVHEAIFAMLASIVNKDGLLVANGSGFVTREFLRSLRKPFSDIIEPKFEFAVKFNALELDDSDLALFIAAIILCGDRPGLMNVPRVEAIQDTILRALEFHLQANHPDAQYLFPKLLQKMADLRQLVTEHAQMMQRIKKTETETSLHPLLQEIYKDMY
Procedure: as §1

[8] = initial studies, range 1 to 30 μM, HaCaT model
[9] = creams at 1% and 5%, once daily day 10 to day 16, FIG. 11

SMILES: C=C(C)[C@@H]1CCC(C)=C[C@H]1c1c(O)cc(CCCCC)cc1O [CBD, cannabidiol, reference compound]
HaCaT growth ([1]; at higher concentrations, e.g. 30 μM): inhibit HaCaT growth | production of IL-6 [1, 8]: reduced | production of IL-8 [1, 8]: reduced | tolerability in mice [2]: well tolerated | visual damage on the skin [2]: No visual damage

SMILES: CCCc1cc(C(=O)c2ccc(F)cc2)ccc1OCCCOc1ccc2c(cnn2CC(=O)OC)c1 [MP-152, methyl 2-(5-(3-(4-(4-fluorobenzoyl)-2-propylphenoxy)nropoxy)-1H-indazol-1-yl)acetate]
PPARα transactivation: concentration at which (or starting at which) active [3]: 1 µM | PPARγ transactivation: concentration at which (or starting at which) active [4]: 1,000 nM | production of IL-6 ([5]; compound at 2.5 μM): significantly inhibited | production of IL-6 ([5]; compound at 25 μM): significantly inhibited | reduction of IL-8 production compared with rosiglitazone and fenofibrate ([6]; 25 μM): more active | production of IL-6 ([6]; compound at 25 uM): reduced | reducing the PASI score compared with CP [2, 9]: more effective than CP | reducing the PASI score, rank among the treatment groups [2, 9]: most active | tolerability in mice [2]: well tolerated | visual damage on the skin [2]: No visual damage

PPARδ/β transactivation activity [7]: showed activities
SMILES: CSc1ccc(C(=O)/C=C/c2cc(C)c(OC(C)(C)C(=O)O)c(C)c2)cc1 [elafibranor]

PPARδ/β transactivation activity [7]: showed activities
SMILES: CCO[C@@H](Cc1ccc(OCCn2c(C)ccc2-c2ccc(SC)cc2)cc1)C(=O)O [saroglitazar]
